According to US5079152A, “Antibody combining sites that exhibit stereoselective synthase activity, and methods using the same” (Scripps Clinic and Research Foundation, priority 1987, dated 1992):
Where two headings read alike, the source gives them in different places.

Tested on: monoclonal antibody 24B11 (receptor lactone synthase secreted by hybridoma 24B11, ATCC HB9488)
Test: Kinetics of lactone-forming cyclization catalyzed by monoclonal receptor lactone synthase 24B11 (phenol release at 271 nm, Lineweaver-Burk)
Assay type: biochemical, mouse

SMILES	kcat / kuncat (catalyzed versus uncatalyzed first order cyclization rate constant)	rate acceleration (presence versus absence of the catalytic lactone synthase molecule) [fold]	Km (racemic substrate ligand 20-100 uM, receptor 2 uM, 25 mM phosphate buffer pH 7.0, 25 degrees C, read-out: Km) [µM]	kcat (receptor 2 uM (IgG, 150,000 daltons), pH 7.0, 25 degrees C) [L/min]	Vmax (receptor 2 uM, substrate 20-100 uM, pH 7.0, 25 degrees C) [µM/min]	Km (in the absence of binding by the unreactive enantiomer, read-out: Km for the reactive enantiomer of the substrate ligand) [µM]
CC(=O)NCC(O)CCCC(=O)Oc1ccccc1 (racemic) [phenyl 6-acetamido-5-hydroxyhexanoate]	167	167	76	0.50	0.99	
CC(=O)NCC(O)CCCC(=O)Oc1ccccc1 (single isomer, unassigned) [reactive enantiomer of the substrate ligand]						~38
